Test results reported in PubChem BioAssay (NCI).
Several values for one entry are separate records, joined by “and”; a condition that tells them apart may be missing. Identical values can stand only once.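 Grown in 96-well plates, cells were treated for 48 hours with each compound at five concentrations. Insufficient inhibition: endpoint recorded as highest concentration tested. Abbreviation: GI50, concentration required for 50% inhibition of growth. TGI denotes the concentration required for complete inhibition of growth.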

Assays:
Test in all cases: NCI-60 cell line screen, 48 h
ACHN renal = test system: ACHN renal
SF-295 CNS = test system: SF-295 CNS
K-562 leukemia = test system: K-562 leukemia
SF-539 CNS = test system: SF-539 CNS
IGROV1 ovarian = test system: IGROV1 ovarian
M14 melanoma = test system: M14 melanoma
HOP-92 NSCLC = test system: HOP-92 NSCLC
CCRF-CEM leukemia = test system: CCRF-CEM leukemia
HT29 colon = test system: HT29 colon
SK-MEL-5 melanoma = test system: SK-MEL-5 melanoma

| SMILES | GI50 (ACHN renal) [µM] | TGI (ACHN renal) | GI50 (SF-295 CNS) [µM] | TGI (SF-295 CNS) | GI50 (K-562 leukemia) [µM] | TGI (K-562 leukemia) | GI50 (SF-539 CNS) [µM] | TGI (SF-539 CNS) | GI50 (IGROV1 ovarian) [µM] | TGI (IGROV1 ovarian) | GI50 (M14 melanoma) [µM] | TGI (M14 melanoma) | GI50 (HOP-92 NSCLC) [µM] | TGI (HOP-92 NSCLC) | GI50 (CCRF-CEM leukemia) [µM] | TGI (CCRF-CEM leukemia) | GI50 (HT29 colon) [µM] | TGI (HT29 colon) [µM] | GI50 (SK-MEL-5 melanoma) [µM] | TGI (SK-MEL-5 melanoma) |
| --- | --- | --- | --- | --- | --- | --- | --- | --- | --- | --- | --- | --- | --- | --- | --- | --- | --- | --- | --- | --- |
| COc1cc(-c2cn(-c3ccc(Cl)c(Cl)c3)c(=O)n2C(C)=O)cc(OC)c1OC | 10.4 | 30.5 µM | 1.53 | 5.79 µM | 16.1 | > 100 µM | 2.07 | 4.29 µM | 5.34 | 17.6 µM | 16.7 | 45.7 µM | 3.42 | 16.8 µM | 16.1 | 59.9 µM | 6.32 | 21.8 | 12.7 | 25.3 µM |
| O=C(N/N=C(/CCN1CCCC1)CC(c1ccccc1)c1c(O)c2ccccc2oc1=O)c1ccncc1 (centres undefined) |  | > 100 µM |  | > 100 µM |  | > 100 µM |  | > 100 µM |  | > 100 µM |  | > 100 µM |  | > 100 µM |  | > 100 µM |  | > 100 |  | > 100 µM |
| Fc1cc2[nH]ncc2c2c3c(c(-c4cn[nH]c4C(F)(F)F)nc12)C1CCC3C1 (centres undefined) | 0.532 | 3.2 µM | 1.21 | 4.94 µM | 1.61 | > 50 µM | 0.82 | 2.1 µM | 0.994 | 3.77 µM | 0.791 | 3.53 µM | 0.885 | 3.04 µM | 1.23 | > 50 µM | 1.47 | 10.5 | 0.74 | 1.52 µM |
| CCOP(=O)(OCC)OC(C#N)c1ccc(-c2ccccc2)cc1 (centres undefined) |  | > 100 µM |  | > 100 µM |  | 40 µM |  | 38.9 µM |  | > 100 µM |  | 33.3 µM |  | 52.6 µM |  | 49.7 µM |  | 34.3 |  | 31.8 µM |
| CCn1c(-c2nonc2N)nc2c(C#CC(C)(C)O)nc(OCCNC)cc21 | 8.29 | > 25 µM | 6.66 | > 22.6 µM | 10.3 | > 25 µM | 6.11 | 20.7 µM | 8.13 | > 25 µM | 8.15 | 22.6 µM | 4.59 | 14.5 µM | 7.25 | > 25 µM | 6.21 | 13.8 | 5.19 | 12 µM |
| Nc1ccc(C(=O)CC(N)C(=O)O)cc1O (centres undefined) |  | > 100 µM |  | > 100 µM |  | > 100 µM |  | > 100 µM |  | > 100 µM |  | > 100 µM |  | > 100 µM |  | > 100 µM |  | > 100 |  | > 100 µM |
| COC1C2C=CC(C2)[C@H]1[N+](=O)[O-] (some centres undefined) |  | > 100 µM |  | > 100 µM |  | > 100 µM |  | > 100 µM |  | > 100 µM |  | > 100 µM |  | > 100 µM |  | > 100 µM |  | > 100 |  | > 100 µM |
| CNCCn1c(=O)c2cc(OC)c(OC)cc2c2ccc3cc4c(cc3c21)OCO4 | 0.0822 | 0.368 µM | 0.0346 | 0.359 µM | 0.0552 | 5.19 µM | 0.133 | 0.424 µM | 0.142 | 2.29 µM | 0.0786 | 0.399 µM | 0.16 | 2.13 µM | 0.0203 | 0.952 µM | 0.072 | 1.04 | 0.0862 | 0.199 µM |
| Cc1sc2nc3c4ccccc4c(NCCCN(C)C)nn3c(=O)c2c1C | 6.95 | 20.4 µM | 8.25 | 26.5 µM | 1.93 | 3.9 µM | 1.65 | 3.04 µM | 5.3 | 24.6 µM | 1.77 | 3.22 µM | 5.57 | 20 µM | 6.13 | 17.2 µM | 1.52 | 3.36 | 3.01 | 9.8 µM |
| CC1=C(C(=O)Nc2cccc(Cl)c2)C(c2ccccc2F)C(C(=O)Nc2cccc(Cl)c2)=C(C)N1 |  | 46 µM |  | 36.8 µM |  | 24.6 µM |  | 30.4 µM |  | 47.3 µM |  | 18 µM |  | 8.7 µM |  | 26.2 µM |  | 15.5 |  | 29.5 µM |
| CCN(CC)C(=S)SC |  | > 100 µM |  | > 100 µM |  | > 100 µM |  | > 100 µM |  | > 100 µM |  | > 100 µM |  | > 100 µM |  | > 100 µM |  | > 100 |  | > 100 µM |
| CC(CCC(=O)O)C(=O)O (centres undefined) |  | > 100 µM |  | > 100 µM |  | > 100 µM |  | > 100 µM |  | > 100 µM |  | > 100 µM |  | > 100 µM |  | > 100 µM |  | > 100 |  | > 100 µM |
| CN(C)/N=C(/c1nc2ccc(Cl)cc2[nH]c1=O)C(O)c1ccc(C(O)/C(=N\N(C)C)c2nc3ccc(Cl)cc3[nH]c2=O)cc1 (centres undefined) |  | > 100 µM |  | > 100 µM |  | > 100 µM |  | > 100 µM |  | > 100 µM |  | > 100 µM |  | > 100 µM |  | > 100 µM |  | > 100 |  | > 100 µM |
| Cn1c2c(c3ccc(Cl)c(Cl)c31)C(C#N)C1(CCNCC1)NC2=O (centres undefined) | 1.82 | 5.79 µM | 2.46 | 8.1 µM | 1.47 | 2.89 µM | 2.03 | 6.34 µM | 1.66 | 3.83 µM | 1.54 | 3.3 µM | 0.484 | 2.37 µM | 1.93 | 4.72 µM | 2.02 |  | 1.5 | 2.91 µM |
| COC(=O)[C@]12CCC(C)[C@H](C)[C@H]1C1=CCC3[C@@]4(C)CC[C@H](OC(C)=O)C(C)(C)C4CC[C@@]3(C)C1(C)C(O)C2 (some centres undefined) |  | > 100 µM |  | > 100 µM |  | > 100 µM |  | > 100 µM |  | > 100 µM |  | > 100 µM |  | > 100 µM |  | > 100 µM |  | > 100 |  | > 100 µM |
| COc1ccc(Cn2c3c(cc(OS(=O)(=O)C(F)(F)F)c2=O)Cc2ccccc2-3)cc1 | 5.25 | 50 µM and > 100 µM | 31.7 | 50 µM and > 100 µM | 5.1 | 50 µM and > 100 µM | 5.29 | 50 µM and > 100 µM | 7.26 | 50 µM and > 100 µM | 11.4 | 15.4 µM and 30.8 µM | 17.6 | 50 µM and > 100 µM | 3.95 | 50 µM and > 100 µM | 79 | > 100 | 7.3 | 26 µM and 43.9 µM |
